The results in this text go back to PubChem BioAssay AID1996.

The structures appear in SMILES notation. Converted amounts (≈) assume the structure as drawn. Bounds are passed on as bounds.

The conditions of the data set: buffer; pH 7.4; 200.0 µM.
On to `COc1ccc(S(=O)(=O)Nc2cc3[nH]c(=O)oc3cc2C)cc1`, for which the kinetic solubility is over 50.2 µg/mL.

Compound `CCOC(=O)C(Nc1ccc2ccccc2c1)C(=O)OCC` showed a solubility (kinetic) of over 45.2 µg/mL. To `COc1ccc2oc(C(=O)OCC(=O)N3CCC(C)CC3)c(C)c2c1` belongs 41.8 µg/mL (≈ 121 µM). The result for `CCOc1ccc(N/C(C)=C/C(=O)c2ccc3c(c2)OCCO3)cc1` reads 0.8 µg/mL (≈ 2.36 µM); that for `O=[N+]([O-])c1cc(CS(=O)(=O)Oc2ccc(Cl)cc2)c(O)c([N+](=O)[O-])c1`, over 58.3 µg/mL. As for `CC(=O)Nc1ccc(OCCOc2ccc(NC(C)=O)cc2)cc1`, the kinetic solubility turned out to be 2.2 µg/mL (≈ 6.7 µM).

Compound `Fc1ccccc1CN1CCC(Cc2ccccc2)CC1` came in with a kinetic solubility of 25.9 µg/mL (≈ 91.4 µM). To `NS(=O)(=O)c1ccc(N2CCOCC2)c(C(=O)NCc2cccs2)c1` belongs over 57.2 µg/mL; to `CCc1noc(C)c1C(=O)Nc1nc2ccc(F)cc2s1`, 27.2 µg/mL (≈ 89.1 µM); to `NC(=O)c1cc[n+](CC(=O)NC(=O)Nc2ccccc2)cc1`, 30.5 µg/mL. With `CC(=O)CC1=NC(C)(C)Cc2ccccc21`, the solubility (kinetic) worked out at 17.2 µg/mL (≈ 79.9 µM). The result for `COc1ccc(C(=O)NCCn2cc(SCC(N)=O)c3ccccc32)cc1` reads 50.6 µg/mL (≈ 132 µM); that for `N#Cc1nc(-c2ccc(F)cc2)oc1NCCCn1ccnc1`, 2.5 µg/mL (≈ 8.03 µM). To `Oc1c(Cl)cc(Cl)cc1CNc1ccccn1` belongs 3.1 µg/mL (≈ 11.5 µM); to `COc1ccccc1C(=O)Nc1ccc(NC(=O)C2CCCCC2)nc1`, 0.9 µg/mL (≈ 2.55 µM). The result for `O=C(NNC(=O)C12CC3CC(CC(C3)C1)C2)c1cccc([N+](=O)[O-])c1` reads over 51.5 µg/mL; that for `CC(C)(C)NC(=S)NC1CC1`, 25.8 µg/mL (≈ 150 µM).

As for `Cc1cnc(=O)[nH]c1SCc1ccc([N+](=O)[O-])cc1`, the solubility (kinetic) worked out at 22.1 µg/mL (≈ 79.7 µM). The result for `Cc1cccc2c1NC(=O)C2(O)N1CCCC(C)C1` (configuration not stated) reads over 39.1 µg/mL; that for `CSc1ccc(CN(C)C(=O)c2cc(=O)c3ccccc3o2)cc1`, over 50.9 µg/mL. To `CSc1ncccc1C(=O)OCC(=O)NC(C)CCc1ccccc1` (configuration not stated) belongs 29.1 µg/mL (≈ 81.2 µM); to `CN(C)C(CNC(=O)c1coc2ccccc2c1=O)c1ccccc1` (configuration not stated), over 50.5 µg/mL. With `COc1cc(C)ccc1S(=O)(=O)NC1CC(C)(C)NC(C)(C)C1`, the kinetic solubility was found to be 35 µg/mL (≈ 103 µM). The result for `CC1CCc2cc(F)ccc2N1C(=O)CCl` (configuration not stated) reads over 36.3 µg/mL. To `S=C1NCCNC(=S)NCCOCCOCCOCCN1` belongs over 50.5 µg/mL.

For the compound `COC(=O)c1ccc(Oc2nc(SC)nc(N(C)C)n2)cc1`, the kinetic solubility is 2.1 µg/mL (≈ 6.55 µM). The result for `CNc1cc(C)nc(N2CCOCC2)n1` reads over 31.2 µg/mL; that for `Cn1ccnc1C(=O)Cc1ccc([N+](=O)[O-])cc1`, 35.2 µg/mL (≈ 144 µM); that for `COc1cccc(CN(C)C(=O)C23CC4CC(CC(C4)C2)C3)c1`, 19.4 µg/mL (≈ 61.9 µM).

In turn, `O=C(Nc1nnc2n1CCS2)c1ccco1` came in with a kinetic solubility of over 35.4 µg/mL. The result for `CC1(C)Cc2cccc(OCC(=O)Nc3ccccc3C(F)(F)F)c2O1` reads 7.5 µg/mL (≈ 20.5 µM). To `CC(C(=O)Nc1ccc(F)c(F)c1F)N(C)CCOc1ccccc1` (configuration not stated) belongs 13.6 µg/mL (≈ 38.6 µM). The result for `Cn1ccnc1C1CCCCN1Cc1nc(Cc2ccccc2F)no1` (configuration not stated) reads 49.9 µg/mL (≈ 140 µM); that for `Fc1ccc(NC(=S)NCc2cccnc2)cc1`, over 39.2 µg/mL.

Take `Cc1cc(SCc2ccc(Br)cc2)nc(=O)[nH]1`: the kinetic solubility was 6 µg/mL (≈ 19.3 µM). Consider `CN(Cc1ccc(F)cc1)C(=O)COc1ccc2ccccc2c1`, for which the solubility (kinetic) is under 0.7 µg/mL. To `CCOC(=O)c1[nH]c2ccccc2c1NC(=O)NC(C)C` belongs 1.7 µg/mL (≈ 5.88 µM). The result for `O=C1NC(=O)C(c2ccccc2)(c2ccc(O)cc2)N1` (configuration not stated) reads over 40.2 µg/mL; that for `COc1ccc([N+](=O)[O-])cc1NS(=O)(=O)c1cccc(C(=O)OC2CCOC2=O)c1` (configuration not stated), over 65.5 µg/mL; that for `N#Cc1c(NC(=O)c2ccco2)sc2c1CCC2`, 9.4 µg/mL (≈ 36.4 µM). To `Brc1ccc(C2=CSC3=NCCN23)cc1` belongs 28.9 µg/mL (≈ 103 µM); to `CC(=O)NC(=O)COC(=O)c1ccc2ncsc2c1`, 27.5 µg/mL (≈ 98.8 µM).

Consider `O/N=C(\CN1CCCCC1)c1ccccc1`, for which the kinetic solubility was over 32.7 µg/mL. Take `Cc1ccc2oc(=O)n(CC(=O)N3CCOCC3)c2c1`: the kinetic solubility is over 41.4 µg/mL. To `CN(CCOc1ccccc1)CC(O)COc1ccccc1` (configuration not stated) belongs 28.5 µg/mL (≈ 94.6 µM); to `O=CC1=C(N2CCOCC2)/C(=C/c2ccc(Cl)cc2)CC1`, 32.1 µg/mL (≈ 106 µM). To `CCOc1c(Nc2ccccc2O)c(=O)c1=O` belongs over 35 µg/mL; to `CC(=O)C1=C(O)C(=O)N(c2ccccn2)C1c1ccc(C)cc1` (configuration not stated), over 46.3 µg/mL.

Regarding `O=C(CNC(=O)c1cccc(F)c1)NC1CC1`, the solubility (kinetic) was over 35.4 µg/mL. To `COc1cccc(CN2C(=O)NC3(CCCCCC3)C2=O)c1` belongs over 45.4 µg/mL; to `O=S(=O)(CCN1CCN(c2ccccn2)CC1)c1ccc(F)cc1`, 49 µg/mL (≈ 140 µM); to `CCn1cc(C(=O)OCC(=O)Nc2ccccc2OC(F)F)c(=O)c2ccc(C)nc21`, 4.8 µg/mL (≈ 11.1 µM).
